Data reported in the NIST ThermoML archive (doi:10.1016/j.fluid.2019.112248).
Several values for one entry are separate records, joined by “and”; a condition that tells them apart may be missing. Equal values may be shown once. ± gives the expanded uncertainty stated by the source.

Columns and labels:
[1] = for vapor or sublimation pressure: Liquid, Closed cell (Static) method; for Normal melting temperature: DTA
[2] = Boiling temperature at pressure P; settings: 100 kPa; Glass; DTA
[3] = Molar enthalpy of transition or fusion; settings: DSC
[4] = molar heat capacity at constant pressure; settings: 101.33 kPa, Liquid, DSC

C=CCc1ccc(O)c(OC)c1 [2-hydroxy-5-allylanisole]
Settings	Molar enthalpy of transition or fusion [kcal/mol]	Normal melting temperature [°C]	molar heat capacity at constant pressure [J/K/mol]	vapor or sublimation pressure
[1], 273.7 K	–	–	–	0.000153 ± 0.00014 kPa and 0.000152 ± 0.00014 kPa
[1], 278.19 K	–	–	–	0.000252 ± 0.00014 kPa and 0.000251 ± 0.00014 kPa
[1], 283.19 K	–	–	–	0.000451 ± 0.00014 kPa and 0.000443 ± 0.00014 kPa and 0.000444 ± 0.00014 kPa
[1], 288.19 K	–	–	–	0.000724 ± 0.00015 kPa and 0.000725 ± 0.00015 kPa and 0.000723 ± 0.00015 kPa
[1], 293.2 K	–	–	–	0.001256 ± 0.00016 kPa and 0.001233 ± 0.00016 kPa and 0.001223 ± 0.00016 kPa
[1], 298.2 K	–	–	–	0.00193 ± 0.00017 kPa and 0.001938 ± 0.00017 kPa and 0.001934 ± 0.00017 kPa
[1], 303.2 K	–	–	–	0.00307 ± 0.0002 kPa and 0.003081 ± 0.0002 kPa and 0.003077 ± 0.0002 kPa
[1], 308.2 K	–	–	–	0.004871 ± 0.00025 kPa
[1], 308.21 K	–	–	–	0.004864 ± 0.00025 kPa and 0.004868 ± 0.00025 kPa
[1], Crystal 1	–	-11.3 ± 0.5	–	–
[1], Crystal 2	–	-28.5 ± 0.5	–	–
[3], Crystal 1	4.06 ± 0.263	–	–	–
[3], Crystal 2	2.01 ± 0.143	–	–	–
[4], 265 K	–	–	311.2 ± 12	–
[4], 270 K	–	–	312.8 ± 12	–
[4], 275 K	–	–	314.5 ± 12	–
[4], 280 K	–	–	315.8 ± 12	–
[4], 285 K	–	–	317.4 ± 12	–
[4], 290 K	–	–	319.2 ± 12	–
[4], 295 K	–	–	321 ± 12	–
[4], 300 K	–	–	322.9 ± 12	–
[4], 305 K	–	–	324.8 ± 13	–
[4], 310 K	–	–	326.4 ± 13	–
[4], 315 K	–	–	328.2 ± 13	–
[4], 320 K	–	–	329.9 ± 13	–
[4], 325 K	–	–	331.7 ± 13	–
[4], 330 K	–	–	333.3 ± 13	–
[4], 335 K	–	–	334.8 ± 13	–
[4], 340 K	–	–	336.1 ± 13	–
[4], 345 K	–	–	337.1 ± 13	–
[4], 350 K	–	–	338.2 ± 13	–
[4], 355 K	–	–	339.1 ± 13	–

Settings	Boiling temperature at pressure P [°C]
[2]	-81.7 ± 0.3

C=C(C)[C@H]1CC=C(C)C(=O)C1 [d-carvone]
Settings	Molar enthalpy of transition or fusion [kcal/mol]	Normal melting temperature [°C]	molar heat capacity at constant pressure [J/K/mol]	vapor or sublimation pressure
[1], 258.18 K	–	–	–	0.000197 ± 0.00013 kPa and 0.000202 ± 0.00013 kPa and 0.000201 ± 0.00013 kPa
[1], 263.19 K	–	–	–	0.000371 ± 0.00014 kPa and 0.000373 ± 0.00014 kPa
[1], 268.18 K	–	–	–	0.000653 ± 0.00014 kPa and 0.000656 ± 0.00014 kPa
[1], 268.19 K	–	–	–	0.000653 ± 0.00014 kPa
[1], 273.19 K	–	–	–	0.001096 ± 0.00015 kPa and 0.001097 ± 0.00015 kPa
[1], 273.69 K	–	–	–	0.001133 ± 0.00015 kPa and 0.001138 ± 0.00015 kPa
[1], 273.7 K	–	–	–	0.001141 ± 0.00015 kPa
[1], 278.19 K	–	–	–	0.001788 ± 0.00016 kPa and 0.001789 ± 0.00016 kPa and 0.00179 ± 0.00016 kPa
[1], 283.19 K	–	–	–	0.002902 ± 0.00019 kPa and 0.002899 ± 0.00019 kPa and 0.002893 ± 0.00019 kPa
[1], 288.19 K	–	–	–	0.004581 ± 0.00024 kPa
[1], 288.2 K	–	–	–	0.004579 ± 0.00024 kPa and 0.004587 ± 0.00024 kPa
[1], 293.2 K	–	–	–	0.007151 ± 0.00032 kPa and 0.007137 ± 0.00032 kPa
[1], 298.2 K	–	–	–	0.0109 ± 0.00045 kPa
[1], 298.21 K	–	–	–	0.0109 ± 0.00045 kPa
[1], 303.2 K	–	–	–	0.01637 ± 0.00058 kPa and 0.01638 ± 0.00058 kPa
[1], 308.21 K	–	–	–	0.02413 ± 0.00072 kPa and 0.02415 ± 0.00072 kPa
[1], Crystal	–	-26.4 ± 0.5	–	–
[3], Crystal	2.68 ± 0.0956	–	–	–
[4], 265 K	–	–	264.9 ± 10	–
[4], 270 K	–	–	266.7 ± 10	–
[4], 275 K	–	–	268.7 ± 10	–
[4], 280 K	–	–	270.6 ± 10	–
[4], 285 K	–	–	272.9 ± 11	–
[4], 290 K	–	–	275.2 ± 11	–
[4], 295 K	–	–	277.7 ± 11	–
[4], 300 K	–	–	280.3 ± 11	–
[4], 305 K	–	–	282.7 ± 11	–
[4], 310 K	–	–	284.9 ± 11	–
[4], 315 K	–	–	287.1 ± 11	–
[4], 320 K	–	–	289.5 ± 11	–
[4], 325 K	–	–	292.1 ± 11	–
[4], 330 K	–	–	294.3 ± 11	–
[4], 335 K	–	–	296.5 ± 12	–
[4], 340 K	–	–	298.2 ± 12	–
[4], 345 K	–	–	299.7 ± 12	–
[4], 350 K	–	–	301.1 ± 12	–
[4], 355 K	–	–	302 ± 12	–
